Experiments:
[1] = molecular target: T1, ADP-ribosylation factor GTPase-activating protein 1 (Homo sapiens, UniProt Q8N6T3); test: Inhibition of ARFGAP1 (unknown origin) at 10 uM relative to control
MDA-MB-231 = test: Inhibition of cell migration in human MDA-MB-231 cells at 2.5 uM measured after 12 hrs by transwell migration assay; type: functional
[2] = molecular target: T1, ADP-ribosylation factor GTPase-activating protein 1; test: Inhibition of ARFGAP1 (unknown origin)

T1 sequence (Q8N6T3 whole entry): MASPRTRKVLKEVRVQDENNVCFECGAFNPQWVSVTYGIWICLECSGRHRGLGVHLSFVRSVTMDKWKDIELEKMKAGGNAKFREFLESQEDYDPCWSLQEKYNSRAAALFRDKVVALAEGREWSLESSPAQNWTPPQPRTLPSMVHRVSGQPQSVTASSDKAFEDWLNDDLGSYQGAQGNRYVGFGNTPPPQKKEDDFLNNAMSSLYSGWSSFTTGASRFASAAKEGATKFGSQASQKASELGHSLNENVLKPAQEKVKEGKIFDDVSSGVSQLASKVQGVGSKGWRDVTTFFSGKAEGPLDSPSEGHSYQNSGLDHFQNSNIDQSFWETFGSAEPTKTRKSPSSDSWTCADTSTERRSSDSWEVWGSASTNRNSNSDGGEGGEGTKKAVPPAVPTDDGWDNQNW

Row | inhibition [1] [%] | EC50 [2] [nM] | SMILES | inhibition at 2.5 µM (MDA-MB-231) [%]
1 | 84 | 500 | OC[C@H](Cc1ccccc1)Nc1nc(Oc2ccc3c(c2)CCC3)nc2c1ncn2Cc1ccc(-c2ccccc2)cc1 | 80
2 | 67 | – | FC(F)(F)c1cccc(Oc2nc(NCCc3cccc4ccccc34)c3ncn(Cc4ccc(-c5ccccc5)cc4)c3n2)c1 | –
